Measured values published in the supplement of paper PMC10307832.

What was measured:
Test in all cases: relative viability (nuclei count vs DMSO), 5 days (fraction); higher = more cells survive
HCC-15 = system: HCC-15
Method in brief: (§1)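 Relative viability was taken as the ratio of nuclei in treated wells to nuclei in vehicle wells. Lung cancer cell lines in 1536-well plates received compounds by pin tool one day after seeding, either one drug alone or a fixed anchor-drug dose plus five library-drug doses (not always all listed) in √10 steps. Nuclei were counted on 4× images after 5 days of treatment, and values are medians of duplicate plates.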

HCC-44 = system: HCC-44
Method in brief: as §1

UMC-11 = system: UMC-11
Method in brief: as §1

NCI-H1755 = system: NCI-H1755
Method in brief: as §1

EKVX = system: EKVX
Method in brief: as §1

A549 = system: A549
Method in brief: as §1

NCI-H1623 = system: NCI-H1623
Method in brief: as §1

LCLC-103H = system: LCLC-103H
Method in brief: as §1

NCI-H1395 = system: NCI-H1395
Method in brief: as §1

O=c1cc(N2CCOCC2)oc2c(-c3cccc4c3sc3ccccc34)cccc12 + N=C(N)NC(=N)NCCc1ccccc1 [Phenformin] (partner 250 µM)
relative viability (HCC-15; first compound 0.01 µM): 0.47 | relative viability (HCC-15; first compound 0.03162 µM): 0.481 | relative viability (HCC-15; first compound 0.1 µM): 0.596 | relative viability (HCC-15; first compound 0.3162 µM): 0.481 | relative viability (HCC-15; first compound 1 µM): 0.498 | relative viability (HCC-44; first compound 0.01 µM): 0.249 | relative viability (HCC-44; first compound 0.03162 µM): 0.187 | relative viability (HCC-44; first compound 0.1 µM): 0.134 | relative viability (HCC-44; first compound 0.3162 µM): 0.366 | relative viability (HCC-44; first compound 1 µM): 0.139 | relative viability (UMC-11; first compound 0.01 µM): 0.352 | relative viability (UMC-11; first compound 0.03162 µM): 0.316 | relative viability (UMC-11; first compound 0.1 µM): 0.353 | relative viability (UMC-11; first compound 0.3162 µM): 0.36 | relative viability (UMC-11; first compound 1 µM): 0.336 | relative viability (NCI-H1755; first compound 0.01 µM): 0.652 | relative viability (NCI-H1755; first compound 0.03162 µM): 0.694 | relative viability (NCI-H1755; first compound 0.1 µM): 0.655 | relative viability (NCI-H1755; first compound 0.3162 µM): 0.614 | relative viability (NCI-H1755; first compound 1 µM): 0.605 | relative viability (EKVX; first compound 0.01 µM): 0.228 | relative viability (EKVX; first compound 0.03162 µM): 0.238 | relative viability (EKVX; first compound 0.1 µM): 0.201 | relative viability (EKVX; first compound 0.3162 µM): 0.216 | relative viability (EKVX; first compound 1 µM): 0.199 | relative viability (A549; first compound 0.01 µM): 0.201 | relative viability (A549; first compound 0.03162 µM): 0.143 | relative viability (A549; first compound 0.1 µM): 0.0905 | relative viability (A549; first compound 0.3162 µM): 0.167 | relative viability (A549; first compound 1 µM): 0.183 | relative viability (NCI-H1623; first compound 0.01 µM): 0.565 | relative viability (NCI-H1623; first compound 0.03162 µM): 0.619 | relative viability (NCI-H1623; first compound 0.1 µM): 0.324 | relative viability (NCI-H1623; first compound 0.3162 µM): 0.585 | relative viability (NCI-H1623; first compound 1 µM): 0.545 | relative viability (LCLC-103H; first compound 0.01 µM): 0.317 | relative viability (LCLC-103H; first compound 0.03162 µM): 0.31 | relative viability (LCLC-103H; first compound 0.1 µM): 0.331 | relative viability (LCLC-103H; first compound 0.3162 µM): 0.377 | relative viability (LCLC-103H; first compound 1 µM): 0.341 | relative viability (NCI-H1395; first compound 0.01 µM): 0.435 | relative viability (NCI-H1395; first compound 0.03162 µM): 0.45 | relative viability (NCI-H1395; first compound 0.1 µM): 0.417 | relative viability (NCI-H1395; first compound 0.3162 µM): 0.461 | relative viability (NCI-H1395; first compound 1 µM): 0.447

CCN(CC)CCCCNc1ncc2cc(-c3cc(OC)cc(OC)c3)c(NC(=O)NC(C)(C)C)nc2n1 + N=C(N)NC(=N)NCCc1ccccc1 [Phenformin] (partner 250 µM)
relative viability (HCC-15; first compound 0.01 µM): 0.466 | relative viability (HCC-15; first compound 0.03162 µM): 0.535 | relative viability (HCC-15; first compound 0.1 µM): 0.526 | relative viability (HCC-15; first compound 0.3162 µM): 0.484 | relative viability (HCC-15; first compound 1 µM): 0.424 | relative viability (HCC-44; first compound 0.01 µM): 0.189 | relative viability (HCC-44; first compound 0.03162 µM): 0.195 | relative viability (HCC-44; first compound 0.1 µM): 0.237 | relative viability (HCC-44; first compound 0.3162 µM): 0.234 | relative viability (HCC-44; first compound 1 µM): 0.22 | relative viability (UMC-11; first compound 0.01 µM): 0.346 | relative viability (UMC-11; first compound 0.03162 µM): 0.353 | relative viability (UMC-11; first compound 0.1 µM): 0.371 | relative viability (UMC-11; first compound 0.3162 µM): 0.343 | relative viability (UMC-11; first compound 1 µM): 0.362 | relative viability (NCI-H1755; first compound 0.01 µM): 0.634 | relative viability (NCI-H1755; first compound 0.03162 µM): 0.649 | relative viability (NCI-H1755; first compound 0.1 µM): 0.677 | relative viability (NCI-H1755; first compound 0.3162 µM): 0.675 | relative viability (NCI-H1755; first compound 1 µM): 0.585 | relative viability (EKVX; first compound 0.01 µM): 0.223 | relative viability (EKVX; first compound 0.03162 µM): 0.227 | relative viability (EKVX; first compound 0.1 µM): 0.243 | relative viability (EKVX; first compound 0.3162 µM): 0.258 | relative viability (EKVX; first compound 1 µM): 0.248 | relative viability (A549; first compound 0.01 µM): 0.198 | relative viability (A549; first compound 0.03162 µM): 0.19 | relative viability (A549; first compound 0.1 µM): 1.04 | relative viability (A549; first compound 0.3162 µM): 0.247 | relative viability (A549; first compound 1 µM): 0.12 | relative viability (NCI-H1623; first compound 0.01 µM): 0.602 | relative viability (NCI-H1623; first compound 0.03162 µM): 0.49 | relative viability (NCI-H1623; first compound 0.1 µM): 0.626 | relative viability (NCI-H1623; first compound 0.3162 µM): 0.608 | relative viability (NCI-H1623; first compound 1 µM): 0.577 | relative viability (LCLC-103H; first compound 0.01 µM): 0.34 | relative viability (LCLC-103H; first compound 0.03162 µM): 0.335 | relative viability (LCLC-103H; first compound 0.1 µM): 0.37 | relative viability (LCLC-103H; first compound 0.3162 µM): 0.357 | relative viability (LCLC-103H; first compound 1 µM): 0.293 | relative viability (NCI-H1395; first compound 0.01 µM): 0.426 | relative viability (NCI-H1395; first compound 0.03162 µM): 0.455 | relative viability (NCI-H1395; first compound 0.1 µM): 0.451 | relative viability (NCI-H1395; first compound 0.3162 µM): 0.431 | relative viability (NCI-H1395; first compound 1 µM): 0.397
